Measurements from US8455475B2 (Gruenenthal GmbH, priority 2009, dated 2013).

The compounds below were run against T1, rat B1R (bradykinin receptor 1) (Rattus norvegicus, UniProt P97583) (assay: FLIPR Ca2+ assay (Fluo-4) on CHO K1 cells stably transfected with the B1R gene of the rat (rB1R cells): % inhibition at 10 μM / IC50, agonist Des-Arg9-bradykinin). Settings: CHO-K1, rat B1R.
T1 construct: expressed in transfected cells; host or cells: CHO K1 cells
T1 sequence (P97583 1-337): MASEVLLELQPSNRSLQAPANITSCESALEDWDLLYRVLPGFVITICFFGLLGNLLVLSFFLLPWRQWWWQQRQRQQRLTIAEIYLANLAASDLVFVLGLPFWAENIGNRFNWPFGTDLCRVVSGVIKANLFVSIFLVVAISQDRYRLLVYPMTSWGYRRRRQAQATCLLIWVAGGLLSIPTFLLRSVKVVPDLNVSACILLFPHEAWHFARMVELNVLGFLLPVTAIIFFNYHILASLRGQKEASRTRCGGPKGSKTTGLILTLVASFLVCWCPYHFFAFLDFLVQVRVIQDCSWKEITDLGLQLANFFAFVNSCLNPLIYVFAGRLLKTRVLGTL
Assay type: cell-based
Procedure, shortened: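 Cells were Fluo-4-loaded, then test compound (10 μM, or a concentration series for IC50) was preincubated 10–20 min before agonist challenge at EC80: Lys-Des-Arg9-bradykinin for hB1R, Des-Arg9-bradykinin for rB1R. Peak Ca2+ fluorescence (ex 488/em 540 nm) gave % inhibition versus maximal achievable inhibition.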

Point of comparison: `O=C(NC1CCc2ccc(C(=O)N3CCC4(CCN(CCCc5cccc(F)c5)CC4)CC3)cc21)c1cccc(Cl)c1Cl` (centres unmarked) [IND_CC-759, 2,3-Dichloro-N-[6-[9-[3-(3-fluorophenyl)-propyl]-3,9-diazaspiro[5.5]undecane-3-carbonyl]-2,3-dihydro-1H-inden-1-yl]-benzamide], inhibition at 10 µM 78%. Against it:
- Cc1cccc(Cl)c1C(=O)NC1CCc2ccc(C(=O)N3CCC4(CCN(CC(C)C)CC4)C3)cc21 (centres unmarked) [IND_CC-767, 2-Chloro-6-methyl-N-[6-[8-(2-methyl-propyl)-2,8-diazaspiro[4.5]decane-2-carbonyl]-2,3-dihydro-1H-inden-1-yl]-benzamide] — lower, 73%
- CCn1cc(CN2CCC3(CC2)CCN(C(=O)c2ccc4c(c2)C(NC(=O)c2cccc(Cl)c2Cl)CC4)CC3)c(C)n1 (centres unmarked) [IND_CC-752, 2,3-Dichloro-N-[6-[9-[(1-ethyl-3-methyl-1H-pyrazol-4-yl)-methyl]-3,9-diazaspiro[5.5]undecane-3-carbonyl]-2,3-dihydro-1H-inden-1-yl]-benzamide] — lower, 69%
- O=C(NC1CCc2ccc(C(=O)N3CCC4(CC3)CCN(c3ccncc3)C4)cc21)c1c(F)cccc1C(F)(F)F (centres unmarked) [IND_CC-377, 2-Fluoro-N-[6-(2-pyridin-4-yl-2,8-diazaspiro[4.5]decane-8-carbonyl)-2,3-dihydro-1H-inden-1-yl]-6-(trifluoromethyl)-benzamide] — higher, 104%
- O=C(NC1CCc2ccc(C(=O)N3CCC4(CCN(Cc5ccc(F)cc5F)CC4)CC3)cc21)c1cc(Cl)ccc1F (centres unmarked) [IND_CC-629, 5-Chloro-N-[6-[9-[(2,4-difluoro-phenyl)-methyl]-3,9-diazaspiro[5.5]undecane-3-carbonyl]-2,3-dihydro-1H-inden-1-yl]-2-fluoro-benzamide] — lower, 71%
- O=C(NC1CCc2ccc(C(=O)N3CCC4(CCN(Cc5ccc6ncccc6c5)CC4)C3)cc21)c1ccccc1Cl (centres unmarked) [IND_CC-567, 2-Chloro-N-[6-[8-(quinolin-6-yl-methyl)-2,8-diazaspiro[4.5]decane-2-carbonyl]-2,3-dihydro-1H-inden-1-yl]-benzamide] — higher, 100%
- O=C(NC1CCc2ccc(C(=O)N3CCC4(CCN(Cc5ccc6nccnc6c5)CC4)C3)cc21)c1c(F)cccc1Cl (centres unmarked) [IND_CC-775, 2-Chloro-6-fluoro-N-[6-[8-(quinoxalin-6-yl-methyl)-2,8-diazaspiro[4.5]decane-2-carbonyl]-2,3-dihydro-1H-inden-1-yl]-benzamide] — higher, 98%
- O=C(NC1CCc2ccc(C(=O)N3CCC4(CCN(S(=O)(=O)c5ccc(F)cc5F)CC4)C3)cc21)c1ccccc1Cl (centres unmarked) [IND_CC-500, 2-Chloro-N-[6-[8-[(2,4-difluoro-phenyl)sulfonyl]-2,8-diazaspiro[4.5]decane-2-carbonyl]-2,3-dihydro-1H-inden-1-yl]-benzamide] — lower, 51%
- O=C(NC1CCc2ccc(C(=O)N3CCC4(CC3)CCN(c3ccc(C(F)(F)F)cc3)CC4)cc21)c1cc(F)c(F)cc1Cl (centres unmarked) [IND_CC-230, 2-Chloro-4,5-difluoro-N-[6-[9-[4-(trifluoromethyl)-phenyl]-3,9-diazaspiro[5.5]undecane-3-carbonyl]-2,3-dihydro-1H-inden-1-yl]-benzamide] — higher, 104%
- CC1(C)Cc2ccc(C(=O)N3CCC4(CC3)CCN(c3ccncc3)CC4)cc2C1NS(=O)(=O)c1ccc(C(F)(F)F)cc1Cl (centres unmarked) [IND_CC-330, 2-Chloro-N-[2,2-dimethyl-6-(9-pyridin-4-yl-3,9-diazaspiro[5.5]undecane-3-carbonyl)-1,3-dihydro-inden-1-yl]-4-(trifluoromethyl)-benzenesulfonic acid amide] — lower, 67%
- O=C(c1ccc2c(c1)C(N(C(=O)c1ccccc1Cl)C1CC1)CC2)N1CCC2(CCN(Cc3cc(F)ccc3F)CC2)C1 (centres unmarked) [IND_CC-522, 2-Chloro-N-cyclopropyl-N-[6-[8-[(2,5-difluoro-phenyl)-methyl]-2,8-diazaspiro[4.5]decane-2-carbonyl]-2,3-dihydro-1H-inden-1-yl]-benzamide] — lower, 55%
